# Assay results taken from article PMC3557921 (Journal of Medicinal Chemistry, 2012).
# Molecular target: T1, β-catenin (armadillo-repeat region of human β-catenin) (Homo sapiens, UniProt P35222)
# T1 sequence (P35222 134-671 limits assumed): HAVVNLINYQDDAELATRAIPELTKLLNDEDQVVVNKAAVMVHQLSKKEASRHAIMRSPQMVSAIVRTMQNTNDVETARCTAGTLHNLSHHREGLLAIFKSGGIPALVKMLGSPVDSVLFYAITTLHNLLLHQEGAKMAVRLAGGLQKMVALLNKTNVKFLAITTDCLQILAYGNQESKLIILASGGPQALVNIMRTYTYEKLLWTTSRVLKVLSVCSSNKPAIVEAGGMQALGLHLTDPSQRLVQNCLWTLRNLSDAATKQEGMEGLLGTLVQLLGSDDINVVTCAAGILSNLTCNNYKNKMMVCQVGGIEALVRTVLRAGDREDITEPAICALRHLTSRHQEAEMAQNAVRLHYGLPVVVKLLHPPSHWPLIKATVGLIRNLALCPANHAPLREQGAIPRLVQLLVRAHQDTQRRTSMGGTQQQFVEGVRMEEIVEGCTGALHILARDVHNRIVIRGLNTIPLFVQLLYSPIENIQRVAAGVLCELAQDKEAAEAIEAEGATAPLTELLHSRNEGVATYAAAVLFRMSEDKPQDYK
# Test: 1D 1H STD-NMR
# Assay type: binding
# Conditions: 30 μM protein, 1 mM ligand; 100 mM Tris, 150 mM NaCl, 2 mM DTT, pH 7.4, 25 °C
smiles,measurement,value
O=C1OC2(c3ccccc31)c1cc(Br)c(O)c(Br)c1Oc1c2cc(Br)c(O)c1Br [eosin Y],1D 1H STD-NMR,predicted ligands fluorescein and eosin Y bind to the protein
